Legend:
normal skin = experiment: Human Repeat Insult Patch Test (RIPT); format: in vivo; conditions: RIPT positive control
Experimental: The objective of the study was to determine irritation and sensitization potential of the composition as a test material after repeated application to skin. Contact sensitization was measured by treatment emergent adverse events (TEAE5), reaction grade and investigator assessment of irritation and sensitization. An informed consent was obtained from each volunteer prior to initiating the study. The consent form described reasons for the study, possible adverse effects, associated risks and potential benefits of the treatment and their limits of liability. […] The present composition was tested under occlusive conditions and placed on an 8-millimeter aluminum Finn Chamber (Epitest Ltd. Oy, Tuusula, Finland) supported on Scanpor Tape (Norgesplaster A/S, Kristiansand, Norway). Alternatively, an 8-mm filter paper coated aluminum Finn Chamber AQUA can be supported on a thin flexible transparent polyurethane rectangular film coated on one side with a medical grade acrylic adhesive, consistent with adhesive used in state-of-the-art hypoallergenic surgical tapes or a 7 mm IQ-ULTRA closed cell system. Such a closed cell system is made of additive-free polyethylene plastic foam with a filter paper incorporated (supplied in units of 10 chambers on a hypoallergenic non-woven adhesive tape having a width of 52 mm and a length of 118 mm) or other equivalents. […] Test materials to be tested in an open patch were applied and rubbed directly onto the back of the subject. Approximately 0.02-0.05 mL (in case of liquids) and/or 0.02-0.05 gm (in case of solids) of the test material was used for the study. Liquid test material was dispensed on a 7.5 mm paper disk, which fit in the Finn Chamber. The following procedure was applied: • 1. Subjects were requested to bathe or wash as usual before arrival at the facility. • 2. […] Patches remained in place for 48 hours after the first application. • 4. Subjects were instructed not to remove the patches prior to their 48 hour scheduled visit. • 5. Thereafter, subjects were instructed to remove patches 24 hours after application for the remainder of the study. • 6. […] Prior to each reapplication, the test sites evaluated by trained laboratory personnel. • 8. Following a 10-14 day rest period a retest/challenge dose was applied once to a previously unexposed test site. Test sites were evaluated by trained laboratory personnel 48 and 96 hours after application. In the event of an adverse reaction, the area of erythema and edema were to be measured. Edema is estimated by the evaluation of the skin with respect to the contour of the unaffected normal skin. Subjects were instructed to report any delayed reactions that might occur after the final reading. […] Site discontinued • Dc: Subject discontinued voluntarily • DcI: Subject discontinued per Investigator

[1] = cited from earlier work

Compound | subjects with a Grade 1 reaction (normal skin; Grade 1: erythema) [subjects] | subjects with a Grade 2 reaction (normal skin; Grade 2: erythema and induration) [subjects] | subjects with a Grade 3 reaction (normal skin; Grade 3: erythema, induration and vesicles) [subjects] | subjects with a Grade 4 reaction (normal skin; Grade 4: erythema, induration and bullae) [subjects] | subjects with a delayed Grade 2 reaction (normal skin; delayed reaction) [subjects] | solubility in oil and alcohol [1]
CCCCCCCCCCCCOS(=O)(=O)[O-].[Na+] [2.0% Sodium Lauryl Sulfate Solution, Sodium Lauryl Sulfate] | 12 | 4 | 1 | 3 | 1 | –
CC(C)C1CC[C@@H](C)C[C@H]1O (single isomer, unassigned; (-)) [Menthol crystals, (−)-menthol] | – | – | – | – | – | soluble in both oil and alcohol
